Experimental data published in patent publication US4051141A, “Thieno[3,2-c]pyridine derivatives” (Centre d'Etudes pour l'Industrie pharmaceutique, priority 1973, dated 1977).

Tests used:
[1] = in vivo; details: mouse, iv, read-out: LD50/24 hrs/kg body weight
[2] = system: carrageenin-induced edema; test: Localised carrageenin-induced edema method (anti-inflammatory action); assay type: in vivo; details: rats, oral 100 mg/kg (1 h before, with, 1 h and 2.5 h after)
Description: a. Localised Carrageenin-induced Edema Method A 1% carrageenin solution (1 ml) is injected in the metatarsal flexor muscles of the right hind paw of rats at time O. The animals of the treated lots are additionally administered orally 100 mg/kg of the test derivative, respectively one hour prior to and then simultaneously with the phlogogenic agent, and then one hour and 2.5 hrs thereafter. The percent anti-inflammatory activity with respect to the reference lot, as a function of time, is determined by measurements effected with a Roch micrometer at times O, one hour, two hours, three hours and five hours after carrageenin administration.

[3] = system: ovalbumin-induced edema; test: Ovalbumin-induced systemic edema method (anti-inflammatory action); assay type: in vivo; details: rats, oral 100 mg (1 h before and with ovalbumin)
Description: b. Ovalbumin-induced Systemic Edema Method Rats are administered a simultaneous intraperitoneal injection of 1 ml ovalbumin and 0.5 ml of a 1.[…]. aqueous Evans Blue solution. The animals of the treated lot are additionally administered orally 100 mg of the test derivative, one hour prior to ovalbumin administration and simultaneously with said ovalbumin administration. The intensity of the phenomenon thus induced is scored according to a scale from 1 to 5, according to the progress of the inflammatory syndrome. Thus are determined the mean intensity of the edema and the percent decrease of the edema reaction with respect to the control lot. Said percentage, for derivative No. 5, for example, is 62% after two hours and 70% after three hours.

[4] = system: blood plate aggregation; test: Inhibitor action on blood plate aggregation induced by adenosine diphosphate (turbidimetric assay of serum from treated animals); assay type: in vivo; details: rats, 100 mg/kg
Source text: 2. Inhibitor Action on Blood Plate Aggregation
The normally cloudy blood plate rich serum of rats is made clear by addition of adenosine diphosphate which induces aggregation of the blood plates. […] Thus, the inhibitor action on blood plate aggregation of the test derivatives may be evaluated by means of a simple spectrophotometric turbidimetric assay.

[5] = Acute toxicity, LD50/24 hrs, intravenous, derivatives of formula (IV); details: mouse, in vivo, mice, read-out: LD50/24 hrs/kg body weight
Source text: It concerned the acute toxicity, the subacute toxicity, the chronic toxicity, the tolerance and the teratology of said derivatives.

Compound	LD50 at 24 h [5]	further results
COc1cc(CN2CCc3sccc3C2)cc(OC)c1OC [derivative 3, 5-(3,4,5-trimethoxy-benzyl)-4,5,6,7-tetrahydrothieno[3,2-c]pyridine]		LD50 at 24 h [1]: 60 mg/kg
Cl.Clc1ccc(CN2CCc3sccc3C2)cc1 [derivative 5, 5-parachlorobenzyl-4,5,6,7-tetrahydro-thieno-[3,2-c]pyridine hydrochloride]		percent anti-inflammatory activity with respect to the reference lot ([2]; after five hours): 55%; percent anti-inflammatory activity with respect to the reference lot ([2]; after one hour): 45%; percent anti-inflammatory activity with respect to the reference lot ([2]; after three hours): 52%; percent anti-inflammatory activity with respect to the reference lot ([2]; after two hours): 51%; percent decrease of the edema reaction with respect to the control lot ([3]; after three hours): 70%; percent decrease of the edema reaction with respect to the control lot ([3]; after two hours): 62%; protection against blood plate aggregation [4]: greater than 95%
O=C(C[n+]1ccc2sccc2c1)c1ccccc1.[Br-] [derivative No. 24, 5-phenacyl-thieno[3,2-c]pyridinium bromide]	19 mg/kg	
COc1ccccc1C(=O)C[n+]1ccc2sccc2c1 [derivative No. 25, 5-(O-Methoxy-Phenacyl)-Thieno[3,2-c]Pyridinium bromide]	18 mg/kg	
O=C(C[n+]1ccc2sc(Cl)cc2c1)c1ccccc1.[Br-] [derivative No. 26, 2-chloro-5-phenacyl-thieno[3,2-c]pyridinium bromide]	38 mg/kg	
O=C(C[n+]1ccc2sccc2c1)c1ccc(Cl)cc1.[Br-] [derivative No. 27, N-parachloro-phenacyl-thieno[3,2-c]pyridinium bromide]	17.5 mg/kg	
O=C(C[n+]1ccc2sccc2c1)c1ccc(F)cc1.[Cl-] [derivative No. 29, 5-para-fluoro-phenacyl-thieno[3,2-c]pyridinium chloride]	16 mg/kg	
O=C(C[n+]1ccc2sccc2c1)c1ccc(O)cc1.[Cl-] [derivative No. 30, N-(para-hydroxy-phenacyl)-thieno[3,2-c]pyridinium chloride]	25 mg/kg	
COc1ccc(C(=O)C[n+]2ccc3sccc3c2)cc1.[Br-] [derivative No. 31, N-(para-methoxy-phenacyl)-thieno[3,2-c]pyridinium bromide]	32 mg/kg	
COc1cccc(C(=O)C[n+]2ccc3sccc3c2)c1.[Br-] [derivative No. 32, N-(meta-methoxy-phenacyl)-thieno[3,2-c]pyridinium bromide]	16 mg/kg	
